Values after ≈ are worked out from the molar mass of the structure shown. Like-named read-outs stand apart in the source and are kept apart here. Positions of bridges follow the written chain, without caps; N, C: chain ends. Non-standard residues stand in square brackets, D forms with d. Residues, ends and D or L forms follow the SMILES beside them. 2Nal = N[C@@H](Cc1ccc2ccccc2c1)C(=O)O; R8 = C=CCCCCCC[C@@](C)(N)C(=O)O; S5 = C=CCCC[C@](C)(N)C(=O)O
Experiments:
EPSA = format: physicochemical
human Mdm2 1–125 = biological target: T1, human Mdm2 1–125 (Homo sapiens, UniProt Q00987); test: Mdm2 binding by competitive fluorescence anisotropy assay (FP binding); settings: read-out: FP binding assay KD
T1 construct: GST (N); His6 (internal); TEV cleavage site (ENLYFQG) (internal); made in house; host or cells: BL21 (DE3) Rosetta T1R Escherichia coli
T1 sequence (Q00987 with tags, fused parts or gaps): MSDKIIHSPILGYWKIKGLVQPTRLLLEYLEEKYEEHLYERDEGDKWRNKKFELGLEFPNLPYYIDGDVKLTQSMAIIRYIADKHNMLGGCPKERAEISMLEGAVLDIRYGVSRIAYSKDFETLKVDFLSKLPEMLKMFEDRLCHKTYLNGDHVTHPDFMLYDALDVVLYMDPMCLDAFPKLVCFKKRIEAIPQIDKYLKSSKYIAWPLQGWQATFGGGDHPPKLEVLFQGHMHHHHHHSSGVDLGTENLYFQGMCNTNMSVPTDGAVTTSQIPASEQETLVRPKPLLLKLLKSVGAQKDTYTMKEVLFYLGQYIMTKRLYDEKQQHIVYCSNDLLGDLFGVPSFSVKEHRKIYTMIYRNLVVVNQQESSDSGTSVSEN
Source text: The TEV (tobacco etch virus) cleavage site was changed from ENLYFQS to ENLYFQG to give a fusion protein with the following sequence:
[P] is the protein concentration (Mdm2), [L] is the labeled peptide concentration, r is the anisotropy measured, r0 is the anisotropy of the free peptide, rb is the anisotropy of the Mdm2–FAM-labeled peptide complex, Kd is the dissociation constant, [L]t is the total FAM labeled peptide concentration, and [P]t is the total Mdm2 concentration. […] This value was then used to determine apparent Kd values of the respective competing ligands in subsequent competition assays in fluorescence anisotropy experiments.
The competing molecules were then titrated against the complex of the FAM-labeled peptide and protein. Apparent Kd values were determined by fitting the experimental data to equations shown below:2 r=ro+(rb−ro)×2(d^2−3e)cos(θ/3)−9/3Kd1+2(d^2−3e)cos(θ/3)−d 3 d=Kd1+Kd2+[L]st+[L]t−Pt 4 e=Lt−PtKd1+Lst+PtKd2+Kd1Kd2 5 f=−Kd1Kd2[P]t 6 θ=arcos−2d^3+9de−27f/2(d^2−3e)^3
[L]st and [L]t denote labeled ligand and total unlabeled ligand input concentrations, respectively. Kd2 is the dissociation constant of the interaction between the unlabeled ligand and the protein. In all competition experiments, it is assumed that [P]t > [L]st, otherwise considerable amounts of free labeled ligand would always be present and would interfere with measurements. […] The FAM-labeled peptide was dissolved in dimethyl sulfoxide (DMSO) at 1 mM and diluted into experimental buffer. Readings were carried out with an Envision Multilabel Reader (PerkinElmer). […] Curve-fitting was carried out using Prism 4.0 (GraphPad). […] Negative control titrations of the ligands under investigation were also carried out with the fluorescently labeled peptide (in the absence of Mdm2) to ensure no interactions were occurring between the ligands and the FAM-labeled peptide. […] Measurements were taken a minimum of three times (biological replicates) and values are reported as geometric means of the replicates.

[1] = Experimental LogD (partition coefficient); settings: for logD: not stated, Partition Coeff LogD
[2] = test system: p53 responsive β-lactamase reporter in HCT116 cells; test: cells; format: cell-based
Procedure, shortened: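 HCT116 cells stably carrying a p53-responsive β-lactamase reporter, seeded at 8000 cells/well, with 0.5% DMSO final. Reporter activity read by ToxBLAzer Dual Screen. Values are geometric means of at least three biological replicates.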

[3] = test system: Jump-In T-REx CHO-K1 BLA cells; test: cells; format: cell-based; settings: for EC50: read-out: TETCHO: Counterscreen EC50
HCT116 cells = test: Lactate dehydrogenase (LDH) release assay; format: cell-based
Procedure, shortened: (§1)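 HCT116 cells stably carrying a p53-responsive β-lactamase reporter were seeded at 8000 cells per well with a final DMSO level of 0.5%. Membrane integrity was assessed by lactate dehydrogenase release using a homogeneous fluorometric kit. Values are geometric means of at least three biological replicates.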

[4] = Lactate dehydrogenase (LDH) release assay; format: cell-based
Procedure, shortened: as §1

[5] = Solubility assay (kinetic solubility, PBS pH 7); format: physicochemical; settings: pH 7, PBS; for solubility kinetic: pH 7, aqueous buffer, kinetic from dmso stock, read-out: Solubility
Procedure, shortened: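 Std: 10 mM stock → 100 µM in ACN/MeOH/DMSO (10:80:10). Sol. [µM] = (sample peak area / std peak area) × std conc.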

[6] = 0% FBS 4Hr, read-out: p53 reporter assay: EC50
[7] = 0% FBS 4Hr, read-out: p53 reporter assay EC50

Compound | EPSA (EPSA; EPSA) | Kd (human Mdm2 1–125) | logD [1] | p53 reporter assay: % Effect ([2]; 0% FBS 4Hr) | EC50 [2, 6] | TETCHO: Counterscreen % Effect ([3]; 0% FBS 4Hr) | EC50 ([3]; 0% FBS 4Hr) | LDH: Cytotoxicity assay: % Effect (HCT116 cells) | EC50 ([4]; LDH: Cytotoxicity assay: EC50) | solubility kinetic [5] | EC50 [2, 7] | LDH: Cytotoxicity assay % Effect (HCT116 cells) | EC50 ([4]; LDH: Cytotoxicity assay EC50) | EPSA (EPSA) | Partition Coeff LogD [1] | p53 reporter assay: % Effect ([2]; 0% FBS 16Hr) | EC50 ([2]; 0% FBS 16Hr, read-out: p53 reporter assay: EC50) | TETCHO: Counterscreen % Effect ([3]; 0% FBS 16Hr) | EC50 ([3]; 0% FBS 16Hr) | Solubility [5]
CC(=O)N[C@@H](CC(C)C)C(=O)N[C@H](C(=O)N[C@@H](Cc1ccccc1)C(=O)N[C@]1(C)CCCCCCC=CCCC[C@@](C)(C(=O)N[C@@H](CO)C(=O)N[C@@H](C)C(=O)N[C@@H](C)C(N)=O)NC(=O)[C@H](CC(C)C)NC(=O)[C@H](CCC(N)=O)NC(=O)[C@H](C)NC(=O)[C@H](Cc2c[nH]c3ccccc23)NC(=O)[C@H](Cc2ccc(O)cc2)NC(=O)[C@H](CCC(=O)O)NC1=O)[C@@H](C)O [MP-154] | 199 A^2 | 0.0444 µM | 2.87 | 150.7% | 0.417 µM | 205.4% | 27.1 µM | 34.9% | > 50.7 µM | 146 µM (≈ 254 µg/mL) | – | – | – | – | – | – | – | – | – | –
CC(=O)N[C@H](C(=O)N[C@@H](CO)C(=O)N[C@@H](Cc1ccccc1)C(=O)N[C@]1(C)CCCCCCC=CCCC[C@@](C)(C(=O)N[C@@H](CO)C(=O)N[C@@H](C)C(=O)N[C@@H](C)C(=O)N[C@@H](CCC(=O)O)C(N)=O)NC(=O)[C@H](CC(C)C)NC(=O)[C@H](CC(C)C)NC(=O)[C@H](C)NC(=O)[C@H](Cc2c[nH]c3ccccc23)NC(=O)[C@H](Cc2ccc(O)cc2)NC(=O)[C@H](CCC(=O)O)NC1=O)[C@@H](C)O [MP-141] | – | < 0.001 µM | – | – | – | 2.385% | > 50 µM | – | – | – | 5.36 µM | 8.71% | > 50 µM | – | – | – | – | – | – | –
CC(=O)N[C@H](C(=O)N[C@@H](CO)C(=O)N[C@@H](Cc1ccc2ccccc2c1)C(=O)N[C@]1(C)CCCCCCC=CCCC[C@@](C)(C(=O)N[C@@H](CO)C(=O)N[C@@H](C)C(=O)N[C@@H](C)C(=O)N[C@@H](CCC(=O)O)C(N)=O)NC(=O)[C@H](CC(C)C)NC(=O)[C@H](CC(C)C)NC(=O)[C@H](C)NC(=O)[C@H](Cc2c[nH]c3ccccc23)NC(=O)[C@H](Cc2ccc(O)cc2)NC(=O)[C@H](CCC(=O)O)NC1=O)[C@@H](C)O [MP-144] (Ac-TS[2Nal][R8]EYWALL[S5]SAAE-NH2; staple 4-11) | – | 46.7 µM | – | – | – | -3.58% | > 50 µM | – | – | – | 5.01 µM | 83.26% | 15.6 µM | – | – | – | – | – | – | –
CC(=O)N[C@@H](CCCCN)C(=O)NCCCCCC(=O)N[C@H](C(=O)N[C@@H](CO)C(=O)N[C@@H](Cc1ccccc1)C(=O)N[C@]1(C)CCCCCCC=CCCC[C@@](C)(C(=O)N[C@@H](CCC(=O)O)C(=O)N[C@@H](CC(N)=O)C(=O)N[C@@H](Cc2ccccc2)C(N)=O)NC(=O)[C@H](CC(C)C)NC(=O)[C@H](CC(C)C)NC(=O)[C@H](C)NC(=O)[C@H](Cc2c[nH]c3ccccc23)NC(=O)[C@H](Cc2ccc(O)cc2)NC(=O)[C@H](CCC(=O)O)NC1=O)[C@@H](C)O [MP-6210] | 255 A^2 | 0.0674 µM | 2.55 | 115.9% | 7.41 µM | 57.09% | 44 µM | 13.27% | > 50.7 µM | 74 µM (≈ 155 µg/mL) | – | – | – | – | – | – | – | – | – | –
CC(C)C[C@@H]1NC(=O)[C@H](C)NC(=O)[C@H](Cc2c[nH]c3ccccc23)NC(=O)[C@H](Cc2ccc(O)cc2)NC(=O)[C@H](CCC(=O)O)NC(=O)[C@](C)(NC(=O)[C@H](Cc2ccccc2)NC(=O)[C@H](CO)NC(=O)[C@@H](NC(=O)[C@H](CO)NC(=O)CNC(=O)[C@@H](N)CO)[C@@H](C)O)CCCCCCC=CCCC[C@@](C)(C(N)=O)NC(=O)[C@H](CC(C)C)NC1=O [MP-132] | – | 0.0459 µM | – | – | – | 9.469% | > 50 µM | – | – | – | 39.6 µM | 1.056% | > 50 µM | – | – | – | – | – | – | –
CC(=O)N[C@H](C(=O)N[C@@H](CO)C(=O)N[C@@H](Cc1ccccc1)C(=O)N[C@]1(C)CCCCCCC=CCCC[C@@](C)(C(=O)N[C@@H](CCC(=O)O)C(N)=O)NC(=O)[C@H](CC(C)C)NC(=O)[C@H](CC(C)C)NC(=O)[C@H](C)NC(=O)[C@H](Cc2c[nH]c3ccccc23)NC(=O)[C@H](Cc2ccc(O)cc2)NC(=O)[C@H](CCC(=O)O)NC1=O)[C@@H](C)O [MP-139] | – | < 0.001 µM | – | – | – | 1.538% | > 50 µM | – | – | – | 6.25 µM | 20.87% | 38.8 µM | – | – | – | – | – | – | –
CC(=O)N[C@@H](CCCCN)C(=O)N[C@@H](CCCCN)C(=O)N[C@H](C(=O)N[C@@H](CO)C(=O)N[C@@H](Cc1ccccc1)C(=O)N[C@]1(C)CCCCCCC=CCCC[C@@](C)(C(N)=O)NC(=O)[C@H](CC(C)C)NC(=O)[C@H](CC(C)C)NC(=O)[C@H](C)NC(=O)[C@H](Cc2c[nH]c3ccccc23)NC(=O)[C@H](Cc2ccc(O)cc2)NC(=O)[C@H](CCC(=O)O)NC1=O)[C@@H](C)O [MP-142] | – | 0.0422 µM | – | – | – | 22.09% | 20.2 µM | – | – | – | 15.2 µM | 72.79% | 46.7 µM | – | – | – | – | – | – | –
CC(=O)N[C@H](C(=O)N[C@@H](CO)C(=O)N[C@@H](Cc1ccccc1)C(=O)N[C@]1(C)CCCCCCC=CCCC[C@@](C)(C(N)=O)NC(=O)[C@H](CC(C)C)NC(=O)[C@H](CC(C)C)NC(=O)[C@H](C)NC(=O)[C@H](Cc2c[nH]c3ccccc23)NC(=O)[C@H](Cc2ccc(O)cc2)NC(=O)[C@H](Cc2c[nH]cn2)NC1=O)[C@@H](C)O [MP-138] (Ac-TSF[R8]HYWALL[S5]-NH2; staple 4-11) | – | 0.0879 µM | – | – | – | 24.03% | > 50 µM | – | – | – | 4.9 µM | 0.2053% | > 50 µM | – | – | – | – | – | – | –
CC(=O)N[C@@H](CC(C)C)C(=O)N[C@H](C(=O)N[C@@H](Cc1ccccc1)C(=O)N[C@]1(C)CCCCCCC=CCCC[C@@](C)(C(=O)N[C@@H](CO)C(=O)N[C@@H](C)C(=O)N[C@@H](C)C(N)=O)NC(=O)[C@H](CC(C)C)NC(=O)[C@H](CCC(N)=O)NC(=O)[C@H](C)NC(=O)[C@H](Cc2c[nH]c3ccccc23)NC(=O)[C@H](Cc2ccc(O)cc2)NC(=O)[C@H](CCC(=O)O)NC1=O)[C@@H](C)O [MP-211] | – | 0.0678 µM | – | 96.16% | 0.731 µM | 40.04% | 48.5 µM | – | – | – | – | – | – | 201 | 2.82 | 100.4% | 1.48 µM | 114.5% | 25.2 µM | 177
